Reference: article doi:10.1101/2025.04.28.650819v3 (biorxiv, 2025)

Experiments:
FtsZ = molecular target: T1, FtsZ (Mycobacterium tuberculosis, UniProt P9WN95); assay: thermal shift assay; type: binding; conditions: read-out: thermal shift (dTm) at 100 μM, 16 h
T1 sequence (P9WN95 1-379): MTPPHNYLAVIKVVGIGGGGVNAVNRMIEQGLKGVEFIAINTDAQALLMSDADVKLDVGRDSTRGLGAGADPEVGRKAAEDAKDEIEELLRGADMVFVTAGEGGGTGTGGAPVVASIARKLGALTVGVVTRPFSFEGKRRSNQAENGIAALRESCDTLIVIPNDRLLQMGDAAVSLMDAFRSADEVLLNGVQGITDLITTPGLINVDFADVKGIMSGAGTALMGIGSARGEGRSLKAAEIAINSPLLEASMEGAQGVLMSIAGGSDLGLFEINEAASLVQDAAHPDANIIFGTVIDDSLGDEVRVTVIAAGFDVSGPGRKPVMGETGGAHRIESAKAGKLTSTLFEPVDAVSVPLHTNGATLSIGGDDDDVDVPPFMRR

PheRS = PheRS (Mycobacterium tuberculosis, UniProt P9WFU3); assay: ATP consumption assay; type: biochemical
PheRS, sequence (P9WFU3 whole entry): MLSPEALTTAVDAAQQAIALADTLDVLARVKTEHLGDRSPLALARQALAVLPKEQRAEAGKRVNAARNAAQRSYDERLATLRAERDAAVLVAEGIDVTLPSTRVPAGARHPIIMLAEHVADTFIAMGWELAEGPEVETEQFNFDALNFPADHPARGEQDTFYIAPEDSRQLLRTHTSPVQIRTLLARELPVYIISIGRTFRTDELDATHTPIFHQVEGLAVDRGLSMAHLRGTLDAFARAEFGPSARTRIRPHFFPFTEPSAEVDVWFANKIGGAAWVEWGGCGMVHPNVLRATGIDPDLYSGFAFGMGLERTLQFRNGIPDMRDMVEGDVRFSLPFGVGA
PheRS, sequence (P9WFU1 whole entry partner): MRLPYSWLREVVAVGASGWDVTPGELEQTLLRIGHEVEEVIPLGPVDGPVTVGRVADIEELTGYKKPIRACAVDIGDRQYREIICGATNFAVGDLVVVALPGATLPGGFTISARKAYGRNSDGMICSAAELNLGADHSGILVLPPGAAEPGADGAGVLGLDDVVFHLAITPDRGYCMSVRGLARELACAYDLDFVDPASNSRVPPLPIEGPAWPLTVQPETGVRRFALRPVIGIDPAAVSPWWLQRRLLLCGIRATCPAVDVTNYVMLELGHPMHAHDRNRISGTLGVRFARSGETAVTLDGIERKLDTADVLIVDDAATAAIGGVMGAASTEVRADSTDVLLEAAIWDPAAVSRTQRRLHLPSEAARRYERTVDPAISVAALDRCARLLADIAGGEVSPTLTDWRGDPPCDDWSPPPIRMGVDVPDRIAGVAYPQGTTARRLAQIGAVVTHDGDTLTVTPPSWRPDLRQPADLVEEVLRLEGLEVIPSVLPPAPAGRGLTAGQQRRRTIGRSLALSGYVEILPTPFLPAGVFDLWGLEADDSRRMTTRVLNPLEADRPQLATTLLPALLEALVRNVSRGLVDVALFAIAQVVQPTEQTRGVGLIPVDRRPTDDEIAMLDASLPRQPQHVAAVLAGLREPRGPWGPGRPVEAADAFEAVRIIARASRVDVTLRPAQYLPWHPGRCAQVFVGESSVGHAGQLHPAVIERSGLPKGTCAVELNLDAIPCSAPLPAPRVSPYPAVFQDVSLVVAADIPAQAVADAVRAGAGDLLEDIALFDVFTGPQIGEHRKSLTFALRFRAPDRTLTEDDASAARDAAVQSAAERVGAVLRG

Compound: CC(=O)Nc1cc(Nc2cc(NC3CC3)n3ncc(C#N)c3n2)ccc1N(C)CC(=O)Nc1cccc(C(F)(F)F)c1 [GDI-10996]
- ΔTm at 100 µM (FtsZ): 1.25 °C

Compound: O=C(Nc1cccc(-c2nn[nH]n2)c1)c1ccc2nc(-c3ccccc3)[nH]c2c1 [GDI-10928]
- IC50 (PheRS): 120 µM
- ΔTm at 100 µM (FtsZ): 1.84 °C
